Experimental data as given in ChEMBL document CHEMBL1135763, “Discovery of aminothiazole inhibitors of cyclin-dependent kinase 2: synthesis, X-ray crystallographic analysis, and biological activities” (J Med Chem, 2002).
Blank lines part the entries; values can stand above or below the molecule they belong to.

Key:
[1] = target: Cyclin-dependent kinase 2/cyclin E (Homo sapiens, UniProt P24941); assay: Inhibitory activity against baculovirus expressed Cyclin dependent kinase 2-cyclinE; type: protein-complex assay
[2] = target: Cyclin-dependent kinase 4/cyclin D1 (Homo sapiens, UniProt P11802); assay: Inhibitory activity against baculovirus expressed Cyclin dependent kinase 4-cyclinD1; type: protein-complex assay
[3] = target: Cyclin-dependent kinase 1/cyclin B (Homo sapiens, UniProt P06493); assay: Inhibitory activity against baculovirus expressed Cyclin dependent kinase 1-cyclinB; type: protein-complex assay
A2780 [4] = assay: cells; conditions: Homo sapiens
Description: Cytotoxic activity against A2780 human ovarian carcinoma cell line

A2780 [5] = assay: Inhibition of A2780 / DDP-S human ovarian carcinoma cell proliferation; type: functional, cell-based
A549 = assay: Inhibition of A549 human lung carcinoma cell proliferation; type: functional, cell-based
A-431 = assay: Inhibition of A431 human squamous cell carcinoma cell proliferation; type: functional, cell-based
A2780 [6] = assay: Inhibition of A2780 / DDP-R human ovarian carcinoma cell proliferation; type: functional, cell-based
A2780 [7] = assay: Inhibition of A2780 / TAX-R human ovarian carcinoma cell proliferation; type: functional, cell-based
A2780 [8] = assay: Inhibition of A2780 / TAX-S human ovarian carcinoma cell proliferation; type: functional, cell-based
ABAE = assay: Inhibition of ABAE […] cell proliferation; type: functional, cell-based
Caco-2 = assay: Inhibition of CACO-2 human colon carcinoma cell proliferation; type: functional, cell-based
[9] = target: Cyclin-dependent kinase 2 (Homo sapiens) (UniProt P24941); assay: Percentage A2780 cells in sub-G1 after 24 hr r at 20 nM (IC50); type: functional, cell-based
[10] = target: Cyclin-dependent kinase 2 (Homo sapiens) (UniProt P24941); assay: Percentage A2780 cells in S-phase after 24 hr r at 20 nM (IC50); type: functional, cell-based
[11] = target: Cyclin-dependent kinase 2 (Homo sapiens) (UniProt P24941); assay: Percentage A2780 cells in G1 after 24 hr r at 295 nM (IC90); type: functional, cell-based
[12] = target: Cyclin-dependent kinase 2 (Homo sapiens) (UniProt P24941); assay: Percentage A2780 cells in G2/M after 24 hr r at 295 nM (IC90); type: functional, cell-based
[13] = target: Cyclin-dependent kinase 2 (Homo sapiens) (UniProt P24941); assay: Percentage A2780 cells in S-phase after 24 hr r at 295 nM (IC90); type: functional, cell-based
[14] = target: Cyclin-dependent kinase 2 (Homo sapiens) (UniProt P24941); assay: Apoptotic A2780 cells after 24 hr r at 295 nM (IC90); type: functional, cell-based
[15] = target: Cyclin-dependent kinase 2 (Homo sapiens) (UniProt P24941); assay: Percentage A2780 cells in sub-G1 after 24 hr r at 295 nM (IC90); type: functional, cell-based
[16] = target: Cyclin-dependent kinase 2 (Homo sapiens) (UniProt P24941); assay: Percentage A2780 cells in G1 after 24 hr r at 20 nM (IC50); type: functional, cell-based
[17] = target: Cyclin-dependent kinase 2 (Homo sapiens) (UniProt P24941); assay: Percentage A2780 cells in G2/M after 24 hr r at 20 nM (IC50); type: functional, cell-based
[18] = target: Cyclin-dependent kinase 2 (Homo sapiens) (UniProt P24941); assay: Apoptotic A2780 cells after 24 hr r at 20 nM (IC50); type: functional, cell-based
[19] = target: Receptor tyrosine-protein kinase erbB-2 (Homo sapiens, UniProt P04626); assay: Inhibition of HER2 kinase
HCT-116 [20] = assay: Inhibition of HCT116 human colon carcinoma cell proliferation; type: functional, cell-based
HCT-116 [21] = assay: Inhibition of HCT116 / VP35 human colon carcinoma cell proliferation; type: functional, cell-based
HCT-116 [22] = assay: Inhibition of HCT116 / VM46 human colon carcinoma cell proliferation; type: functional, cell-based
HL-60 = assay: Inhibition of HL60 human leukemia cell proliferation; type: functional, cell-based
HS27 = assay: Inhibition of Hs 27 human fibroblast cell proliferation; type: functional, cell-based
[23] = Inhibition of Insulin-like growth factor receptor
K562 = assay: Inhibition of K562 human leukemia cell proliferation; type: functional, cell-based
LS174T = assay: Inhibition of LS174T human colon carcinoma cell proliferation; type: functional, cell-based
MCF7 = assay: Inhibition of MCF-7 human breast carcinoma cell proliferation; type: functional, cell-based
MLF = assay: Inhibition of MLF mouse lung fibroblast cell proliferation; type: functional, cell-based
LX-1 = assay: Inhibition of LX-1 human lung carcinoma proliferation; type: functional, cell-based
MIP = assay: Inhibition of MIP human colon carcinoma cell line; type: functional, cell-based
OVCAR-3 = assay: Inhibition of OVCAR-3 human ovarian carcinoma cell proliferation; type: functional, cell-based
PC-3 = assay: Inhibition of PC3 human prostate carcinoma cell proliferation; type: functional, cell-based
SK-BR-3 = assay: Inhibition of SKBR-3 human breast carcinoma cell proliferation; type: functional, cell-based
[24] = target: T1, Tyrosine-protein kinase ITK/TSK (Homo sapiens, UniProt Q08881); assay: Inhibition of tyrosine kinase EMT
T1 sequence (Q08881 whole entry): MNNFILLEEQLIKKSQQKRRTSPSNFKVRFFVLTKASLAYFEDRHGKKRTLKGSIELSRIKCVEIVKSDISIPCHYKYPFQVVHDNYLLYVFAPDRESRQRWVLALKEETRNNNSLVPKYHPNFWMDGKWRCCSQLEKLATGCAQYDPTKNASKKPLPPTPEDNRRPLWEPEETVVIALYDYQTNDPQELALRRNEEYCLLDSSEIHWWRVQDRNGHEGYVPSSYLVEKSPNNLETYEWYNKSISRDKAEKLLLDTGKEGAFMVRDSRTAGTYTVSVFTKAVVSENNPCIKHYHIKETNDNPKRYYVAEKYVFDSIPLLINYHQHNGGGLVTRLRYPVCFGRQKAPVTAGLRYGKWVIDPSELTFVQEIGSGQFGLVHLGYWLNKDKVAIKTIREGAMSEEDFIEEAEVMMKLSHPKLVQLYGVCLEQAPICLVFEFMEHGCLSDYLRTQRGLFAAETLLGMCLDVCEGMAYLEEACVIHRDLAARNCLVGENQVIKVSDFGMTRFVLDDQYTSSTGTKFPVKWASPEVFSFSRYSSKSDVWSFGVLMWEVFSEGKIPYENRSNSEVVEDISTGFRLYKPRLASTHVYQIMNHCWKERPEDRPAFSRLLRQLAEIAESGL

M109 = assay: Inhibition of M109 mouse lung carcinoma cell proliferation; type: functional, cell-based
CCRF-CEM = assay: Inhibition of CCRF-CEM human leukemia cell proliferation; type: functional, cell-based

Chain of Cyclin-dependent kinase 4/cyclin D1 (P11802 whole entry): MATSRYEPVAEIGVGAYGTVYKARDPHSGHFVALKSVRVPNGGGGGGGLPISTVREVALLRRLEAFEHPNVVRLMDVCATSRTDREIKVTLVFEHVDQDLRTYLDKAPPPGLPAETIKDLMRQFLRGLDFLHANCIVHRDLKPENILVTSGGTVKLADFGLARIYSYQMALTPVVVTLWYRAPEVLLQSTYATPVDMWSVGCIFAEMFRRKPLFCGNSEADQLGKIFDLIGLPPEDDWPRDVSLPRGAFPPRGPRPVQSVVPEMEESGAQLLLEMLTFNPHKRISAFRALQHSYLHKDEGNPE
Chain of Cyclin-dependent kinase 4/cyclin D1 (P24385 whole entry, further chain): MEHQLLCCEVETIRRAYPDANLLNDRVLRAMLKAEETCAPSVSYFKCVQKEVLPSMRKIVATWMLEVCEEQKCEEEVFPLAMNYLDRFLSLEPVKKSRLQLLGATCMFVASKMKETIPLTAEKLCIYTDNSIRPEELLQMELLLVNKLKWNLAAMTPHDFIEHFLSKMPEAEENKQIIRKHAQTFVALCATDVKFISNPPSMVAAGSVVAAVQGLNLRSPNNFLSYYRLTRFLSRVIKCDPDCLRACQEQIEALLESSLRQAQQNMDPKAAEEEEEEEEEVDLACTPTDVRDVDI
Chain of Receptor tyrosine-protein kinase erbB-2 (P04626 whole entry): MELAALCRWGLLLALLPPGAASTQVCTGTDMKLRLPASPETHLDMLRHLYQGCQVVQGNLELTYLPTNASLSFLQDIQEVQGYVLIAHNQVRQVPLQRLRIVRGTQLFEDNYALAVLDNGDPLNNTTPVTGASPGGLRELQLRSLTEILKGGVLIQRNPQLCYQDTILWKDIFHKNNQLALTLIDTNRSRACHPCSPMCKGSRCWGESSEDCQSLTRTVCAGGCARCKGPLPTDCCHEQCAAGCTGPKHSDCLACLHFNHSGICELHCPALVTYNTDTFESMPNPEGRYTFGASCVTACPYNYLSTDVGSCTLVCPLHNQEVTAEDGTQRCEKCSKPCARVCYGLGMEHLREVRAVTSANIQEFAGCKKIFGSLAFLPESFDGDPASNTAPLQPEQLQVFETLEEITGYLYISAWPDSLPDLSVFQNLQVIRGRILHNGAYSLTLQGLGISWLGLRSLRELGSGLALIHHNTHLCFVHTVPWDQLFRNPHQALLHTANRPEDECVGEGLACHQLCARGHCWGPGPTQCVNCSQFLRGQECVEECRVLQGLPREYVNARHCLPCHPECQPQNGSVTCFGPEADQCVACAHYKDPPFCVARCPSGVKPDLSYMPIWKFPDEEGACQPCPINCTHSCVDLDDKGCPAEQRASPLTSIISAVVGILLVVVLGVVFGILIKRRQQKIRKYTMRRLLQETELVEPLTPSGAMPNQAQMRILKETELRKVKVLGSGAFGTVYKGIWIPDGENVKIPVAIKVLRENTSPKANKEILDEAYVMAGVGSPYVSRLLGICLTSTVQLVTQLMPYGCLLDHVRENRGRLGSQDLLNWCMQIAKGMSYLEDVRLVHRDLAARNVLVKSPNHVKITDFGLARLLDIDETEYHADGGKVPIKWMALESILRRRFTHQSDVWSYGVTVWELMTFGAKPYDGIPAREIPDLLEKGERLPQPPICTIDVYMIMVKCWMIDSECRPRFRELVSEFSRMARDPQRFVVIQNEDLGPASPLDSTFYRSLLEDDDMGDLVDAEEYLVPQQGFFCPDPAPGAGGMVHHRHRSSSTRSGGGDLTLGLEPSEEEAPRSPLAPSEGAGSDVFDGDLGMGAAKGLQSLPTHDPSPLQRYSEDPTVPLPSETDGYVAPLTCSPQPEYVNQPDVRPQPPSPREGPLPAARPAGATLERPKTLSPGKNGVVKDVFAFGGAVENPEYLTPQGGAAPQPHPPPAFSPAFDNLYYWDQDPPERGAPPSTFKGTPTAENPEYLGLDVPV

- IC50 [1]: 90 nM
- IC50 [2]: 5160 nM
SMILES: CC(=O)Nc1ncc(SCc2ncc(C)o2)s1

- IC50 [3]: 30 nM
- IC50 [1]: 4 nM
- IC50 [2]: 640 nM
- IC50 (A2780 [4]): 1540 nM
SMILES: CC(=O)Nc1ncc(SCc2ncc(CC3CCCCC3)o2)s1

- IC50 [1]: > 1000 nM
SMILES: COCCSc1cnc(NC(C)=O)s1

- IC50 [1]: 60 nM
SMILES: C[C@H](C(=O)Nc1ncc(SCc2ncc(C(C)(C)C)o2)s1)c1ccccc1

- IC50 [1]: 1740 nM
SMILES: CC(=O)Nc1ncc(SCCOC(C)(C)C)s1

- IC50 [3]: 60 nM
- IC50 [1]: 5 nM
- IC50 [2]: 1070 nM
- IC50 (A2780 [4]): 200 nM
SMILES: CCc1cnc(CSc2cnc(NC(=O)C(C)C)s2)o1

- IC50 [3]: 140 nM
- IC50 [1]: 140 nM
- IC50 [2]: > 25000 nM
SMILES: CC(C)C(=O)Nc1ncc([S+]([O-])Cc2ncc(C(C)(C)C)o2)s1 (stereo unspecified)

- IC50 [3]: 18 nM
- IC50 [1]: 25 nM
- IC50 [2]: 2990 nM
- IC50 (A2780 [4]): 640 nM
SMILES: CC(C)OC(=O)Nc1ncc(SCc2ncc(C(C)(C)C)o2)s1

- IC50 (A2780 [5]): 1050 nM
- IC50 (A549): 1870 nM
- IC50 (A-431): 960 nM
- IC50 (A2780 [6]): 1420 nM
- IC50 (A2780 [7]): 1140 nM
- IC50 (A2780 [8]): 700 nM
- IC50 (Caco-2): 1610 nM
- Cell cycle [9]: 2%
- Cell cycle [10]: 11%
- Cell cycle [11]: 62%
- Cell cycle [12]: 25%
- Cell cycle [13]: 6%
- Cell cycle [14]: 16%
- Cell cycle [15]: 7%
- Cell cycle [16]: 58%
- Cell cycle [17]: 29%
- Cell cycle [18]: 6%
- IC50 [3]: 300 nM
- IC50 [1]: 20 nM
- IC50 [2]: 2250 nM
- IC50 [19]: > 25000 nM
- IC50 (HCT-116 [20]): 480 nM
- IC50 (HCT-116 [21]): 450 nM
- IC50 (HCT-116 [22]): 530 nM
- IC50 (HL-60): 1400 nM
- IC50 [23]: > 25000 nM
- IC50 (K562): 3230 nM
- IC50 (MCF7): 1470 nM
- IC50 (MIP): 1790 nM
- IC50 (OVCAR-3): 1210 nM
- IC50 (PC-3): 1060 nM
- IC50 (SK-BR-3): 1640 nM
- IC50 [24]: > 10000 nM
- IC50 (CCRF-CEM): 1450 nM
- IC50 (A2780 [4]): 1400 nM
SMILES: CCc1cnc(CSc2cnc(NC(C)=O)s2)o1
- IC50 (ABAE): 1100 nM
- IC50 (HS27): 860 nM
- IC50 (LS174T): 1710 nM
- IC50 (MLF): 1860 nM
- IC50 (LX-1): 1900 nM
- IC50 (M109): 2100 nM

- IC50 [1]: > 25000 nM
SMILES: CCN(C)C(=O)CSc1cnc(NC(C)=O)s1

- IC50 [1]: > 1000 nM
SMILES: CC(=O)Nc1ncc(SCCOc2ccccc2)s1

- IC50 [1]: > 1000 nM
SMILES: COC(=O)C(Sc1cnc(NC(C)=O)s1)C1CCCCC1 (stereo unspecified)

- IC50 [1]: > 1000 nM
SMILES: COC(=O)C(Sc1cnc(NC(C)=O)s1)c1ccccc1 (stereo unspecified)

- IC50 [1]: 360 nM
SMILES: CC(=O)Nc1ncc(SCc2nc(C)c(C)o2)s1

- IC50 [3]: 40 nM
- IC50 [1]: 5 nM
- IC50 [2]: 690 nM
SMILES: CC(=O)Nc1ncc(SCc2ncc(C(C)(C)C)o2)s1

- IC50 [3]: 90 nM
- IC50 [1]: 17 nM
- IC50 [2]: 3480 nM
- IC50 (A2780 [4]): 250 nM
SMILES: CC(C)(C)C(=O)Nc1ncc(SCc2ncc(C(C)(C)C)o2)s1

- IC50 [1]: > 1000 nM
SMILES: CC(=O)Nc1ncc(SCc2ccncc2)s1

- IC50 [1]: > 1000 nM
SMILES: CCC(CC)CSc1cnc(NC(C)=O)s1

- IC50 [3]: 440 nM
- IC50 [1]: 50 nM
- IC50 [2]: 5380 nM
SMILES: CC(=O)Nc1ncc(SCC(=O)OC(C)(C)C)s1

- IC50 [1]: 50 nM
- IC50 (A2780 [4]): 120 nM
SMILES: CCNC(=O)Nc1ncc(SCc2ncc(C(C)(C)C)o2)s1

- IC50 [1]: > 1000 nM
SMILES: CC(=O)Nc1ncc(SCC(C)C)s1

- IC50 [3]: 19 nM
- IC50 [1]: 11 nM
- IC50 [2]: 900 nM
- IC50 (A2780 [4]): 900 nM
SMILES: CC(C)(C)c1cnc(CSc2cnc(NC(=O)Nc3ccc(F)cc3)s2)o1

- IC50 [1]: 6 nM
- IC50 [2]: 3130 nM
- IC50 (A2780 [4]): 900 nM
SMILES: C[C@@H](C(=O)Nc1ncc(SCc2ncc(C(C)(C)C)o2)s1)c1ccccc1

- IC50 [1]: 200 nM
SMILES: CCc1coc(CSc2cnc(NC(C)=O)s2)n1

- IC50 [1]: > 25000 nM
SMILES: CC(=O)Nc1cnc(SCc2ncc(C(C)(C)C)o2)s1

- IC50 [1]: 2810 nM
SMILES: CC(=O)Nc1ncc(SCC(O)CC(C)(C)C)s1 (stereo unspecified)
